Test results as given in a melting point compilation (Tetko et al.; mined from patent text by program, amines drawn as free bases though some values may be those of a salt).

melting point [°C]	SMILES
130 to 131	CC(C)C[C@H](NC(=O)[C@@H]1CCC(=O)N1C(=O)OCc1ccccc1)C(=O)OC(C)(C)C
253 to 255	CS(=O)(=O)Nc1ccc(-c2nc(C(F)(F)F)c[nH]2)cc1
120 to 122	CCCCCc1c(/C=C/C(=O)Oc2ccc([N+](=O)[O-])cc2)oc2cc(OC)ccc12
262 to 263	CCn1cc(C(=O)O)c(=O)c2cc(F)c(N3CCNC(c4cc5cc(Cl)ccc5o4)C3)cc21 (configuration not stated)
148 to 150	N[C@@H]1CCc2c(ccc(OCc3ccccc3)c2CO)[C@H]1O (relative stereo)
182	CC(C)(C)c1cc(-c2c(S)ssc2=S)cc(C(C)(C)C)c1O
286 to 288	Cc1ccc2c(c1)Nc1ncccc1NC2=O
83 to 84	O=Cc1ccc(C(=O)NCC(F)(F)F)cc1
128 to 130	Cc1cccc(-c2ccc(C(=O)N3Cc4cccn4Cc4ccccc43)cc2)c1
108 to 109	Cc1c(Br)c2c(c3c1C(c1ccc(C(C)C)cc1)CO3)CCCC2 (configuration not stated)
157 to 158	CCCCCCNC(=O)C=C(C)C=CC=C(C)C=Cc1c(C)cc(OC)c(C)c1C
131 to 132	NS(=O)(=O)c1ccccc1C(Cl)Cl
245 to 251	O=C(Nc1ccccc1F)c1ccc(CN2C(=O)C3(COc4cc5c(cc43)OCCO5)c3ccccc32)cc1 (configuration not stated)
151 to 152	CC1(C)Oc2ccsc2C(N2CCCCC2=O)C1O (configuration not stated)
87	CCOC(=O)C1=Cc2cc(Br)ccc2SC1
225 to 226	COc1nccc(-c2c(-c3ccc(F)cc3)ncn2C2CCC(O)(CO)CC2)n1 (configuration not stated)
204 to 208	COc1cc(-c2nc(NC(=O)c3cc4cc(C)ccc4n3CC(=O)O)sc2CCC2CCCCC2)c(OC)cc1Cl
243	O=C(O)CCC(=O)c1ccc2[nH]c3ncc(Cl)cc3c2c1
107 to 108	COc1ccccc1N1CCN(CCC2CN(C)C(=O)O2)CC1 (configuration not stated)
< 50	CCCOCOCCc1ccc(OCCCOC(=O)C2=C(C)NC(C)=C(C(=O)OC)[C@@H]2c2cccc([N+](=O)[O-])c2)cc1
164 to 166	CCOCC1OC(n2cnc3c(NCc4cccc(I)c4)ncnc32)C(O)C1O (configuration not stated)
164 to 165	COc1ccc(O)c(OC)c1-c1ccc(C[C@H](NC(=O)c2c(Cl)cccc2Cl)C(=O)O)cc1
124	O=C(OC1COC(n2cc(CCN3C(=O)c4ccccc4C3=O)c(=O)[nH]c2=O)C(OC(=O)c2ccccc2)C1OC(=O)c1ccccc1)c1ccccc1 (configuration not stated)
85 to 87	CCN1CC(COS(=O)(=O)c2ccc(C)cc2)Oc2ccccc21 (configuration not stated)

melting point [°C]	SMILES
142 to 144	COC1=CC(Cl)(OC)NC(C(=O)CC(=O)Nc2ccccc2)=N1 (configuration not stated)
156 to 157	CCOc1cc2cc(CO)c(CO)c(-c3ccnc(Br)c3)c2cc1OC
65	C[Si](C)(C)C#Cc1cc(F)cnc1N
77 to 80	CC(c1cc(C(C)(C)C#N)cc(C(C)(C)C#N)c1)n1ccnc1 (configuration not stated)
211 to 212	CCCn1nc2c(N)nc3ccccc3c2c1CCN(C(N)=O)c1ccc(F)c(F)c1
169 to 170	NC(=O)N1CC(Oc2ccc(Cl)cc2Cl)C1
129 to 130	Oc1cccc(CCc2nc3ccccc3s2)c1
176 to 178	CC(C)(C)c1ccc(Cn2c(=S)n(Cc3ccc(NS(C)(=O)=O)cc3)c3ccccc32)cc1
132 to 134	COC(=O)c1sc2c(c1C)c1ccccc1n2Cc1ccccc1
80.5 to 83	CC(C)c1cc(S(=O)(=O)Cl)c(C(C)C)cc1Br
161	c1ccc(Nc2ncc3ccncc3n2)cc1
270	O=C(NCCc1c2n(c3ccc(O)nc13)CCCC2)c1ccco1
150	c1ccc(-c2cc(-c3ccc(C4CCCC4)cc3)sc2-c2ccccc2)cc1
142 to 147	CCOC(=O)Cn1cnc2c(N3CCOCC3)nc(NC(=O)C3CCCCC3)nc21
225 to 227	O=c1[nH]c2ccc([C@H]3CC[C@H](N(CCCc4ccc(F)cc4)Cc4ccoc4)CC3)cc2o1
208	N#Cc1cnn2c(C(F)(F)F)cc(-c3ccccn3)nc12
120 to 123	CCC(=O)c1cc(OCc2ccccc2)c(OC)cc1[N+](=O)[O-]
182 to 184	CS(=O)c1c2ccccc2c(C=O)c2ccccc12 (configuration not stated)
135	N#CCCNNC(=S)c1ccc(OCc2ccccc2)cc1
201 to 202	CC(=CC(=O)O)Sc1c[nH]c2ccccc12
226 to 227	O=C1N(Cc2ccc(O)cc2)c2ccccc2C12COc1cc3c(cc12)CCO3 (configuration not stated)
68 to 70	CC(C)(O)c1ccc(CNC(=O)c2cccnc2Oc2cc(F)cc(F)c2)cc1
159 to 160	CC1(C)COC(CCc2ccc(NC=NO)cc2)OC1
85 to 87	Cc1cc([N+](=O)[O-])c(C)cc1SCc1cccc(C(F)(F)F)c1

melting point [°C]	SMILES
196 to 199	CS(=O)(=O)c1ccc(-c2cnn(-c3ccc(F)c(F)c3)c(=O)c2Oc2ccc(Br)cc2)cc1
130 to 133	CCc1c(N)c(C(N)=O)nn1C[C@H]1CCCN1C
254 to 256	CC(=O)NC[C@H]1CN(c2ccc(C(=O)c3cnc4cc(C)ccn34)cc2)C(=O)O1
128 to 133	CC(C)CC(NC(=O)C(Cc1ccccn1)NC(=O)C(Cc1cccc2ccccc12)NC(=O)OCc1ccccc1)C(O)CC(=O)NCCc1ccccn1 (mixture of isomers)
113 to 116	Cc1ccc(-c2c(NS(=O)(=O)c3ccc(C(C)(C)C)cc3)nc(NCCOC3CCCCO3)nc2OCCO)cc1 (configuration not stated)
240 to 250	C[C@@H](NC(=O)c1c[nH]c2ncc(-c3nn(C)c4c(F)c(F)ccc34)nc12)C(=O)N1CC(C#N)C1
86 to 87	CCCCCCCN(Cc1ccc(CCC(C)C)cc1)C(=O)Nc1c(OC)ccc2ncccc12
100	COc1ccccc1-c1cc(F)cc2c1O[C@@H](CN)CC2
73 to 75	CCCCc1c(Cl)nc(O)nc1Cl
103	COc1ccc(C=O)c(OC)c1I
135 to 140	Nc1cc(-n2cccc2)ccc1Nc1cccc(-c2ccccn2)c1
159 to 161	NC(=S)N1CCC(c2cccc(C(F)(F)F)c2)=N1
80 to 81	CCOC(=O)c1c(C(F)(F)F)nc(C(F)F)c(C(=O)OC)c1N(C)C
185 to 188	O=C1C=CC(O)(c2cc3ccccc3s2)C=C1
192	OC1CCc2c(Br)ccc(Nc3cc(-c4ccc(C(F)(F)F)cc4)ncn3)c2C1 (configuration not stated)
97 to 99	C=C(C)C(=O)OCc1c(Br)c(Br)c(Br)c(COC(=O)C(=C)C)c1Br
215 to 216	CCc1cc2c(C(=O)O)ccc(OC)c2o1
252 to 254	CCCOc1cc2ccccc2c2c(=O)c(-c3ccoc3)c[nH]c12
254 to 256	CS(=O)(=O)c1cccc(-n2c(=O)n(Cc3ccncc3)c(=O)c3cccnc32)c1
247	O=C(O)c1cncc(-c2ccc3c(C(=O)NCC45CC6CC(CC(C6)C4)C5)c(Cl)ccc3n2)c1
167 to 169	COC(=O)c1ccc(CN2C(=O)C3(COc4cc5c(cc43)OCCO5)c3ccccc32)cc1 (configuration not stated)
203 to 204	C#CCN1C(=O)C(C)Oc2cc(Cl)c(-c3ccc(C(F)(F)F)n(C)c3=O)cc21 (configuration not stated)
226 to 228	Cc1nn(-c2ccncc2)c2nc3cc(F)c(F)cc3c(Cl)c12
120	CC1C(=O)N(CCO)C(=S)N1c1ccc(Oc2ccccc2)cc1 (configuration not stated)

melting point [°C]	SMILES
124 to 129	Fc1ccc(NC(=S)c2ccccn2)c(F)c1
271 to 272	O=C1Nc2cc(Cl)c(Cl)cc2C1=O
165 to 166	COc1cccc2c1OC(C(=O)Nc1ccncc1)C2CC(=O)OCc1ccccc1 (configuration not stated)
332	O=C1c2ccccc2C(=O)c2c1oc1c2ccc2ccc(O)cc21
64 to 67	CON=C(C#CCCl)C(=O)OC
166 to 168	Cc1ccc(C2(CNC(=O)Nc3c(C(C)C)cccc3C(C)C)CCC2)cc1
158 to 161	Cc1ccc(-c2cn(C)cc(-c3cccc(C(F)(F)F)c3)c2=O)cc1Br
182 to 185	CC(=O)N1CCN=C1Nc1c(Br)cccc1Br
165	Cc1ccc(Cn2c(NC3CCN(CC(O)COc4ccccc4)CC3)nc3ccccc32)o1 (configuration not stated)
64 to 68	CNCCOC(=O)[C@@H](C)c1ccc2cc(OC)ccc2c1
194 to 196	Cn1c(=O)ccc2cnc(S(C)(=O)=O)nc21
> 350	O=c1[nH]c2ccc(Cl)cc2c2nc(-c3ccc(O)cc3)nn12
153 to 159	COC(=O)c1cnc(N2CCN(c3nc4ccc(C(F)(F)F)cc4[nH]3)CC2)c(Cl)c1
173 to 175	O=C(NCc1ccc(F)cc1)c1ccnc(N2CCN(C(F)(F)c3ccc(C(F)F)cc3)C2=O)c1
246 to 248	Cc1cc(CNC(=O)c2nc3scc(COCc4ccc(C(=O)O)cc4)c3c(=O)[nH]2)ccc1F
273 to 278	COc1cc2c(Nc3ccc(Sc4nccn4C)c(Cl)c3)c(C#N)cnc2cc1/C=C/CCO
121 to 128	O=c1c2c(Cl)cc(Cl)cc2n(Cc2ccccc2)c(=O)n1Cc1cccc(Br)c1
241	Nc1ccc(C(=O)c2ccc(N)cc2)cc1
129 to 132	CC(C)N(CCO)c1nc(Nc2cccc(NS(C)(=O)=O)c2)nc2[nH]ccc12
121 to 124	COc1nc(NC(=O)NS(=O)(=O)c2ccccc2OC(F)F)nc(C2CC2)n1
212 to 215	Cc1ccccc1C(=O)Nc1ccc(C(=O)N2Cc3cccn3Cc3ccccc32)cc1
139 to 141	CCCCc1c(-c2ncccc2C(=O)O)n(-c2ccccc2)n(-c2ccccc2)c1=O

SMILES	melting point [°C]
CCOC(=O)c1ncn2c1CN(C)C(=O)c1c(C#N)cccc1-2	200 to 201
CC(C)(C)CCCOC1CCC2C3CC=C4CC(O[Si](C)(C)C(C)(C)C)CCC4(C)C3CCC12C (configuration not stated)	138 to 139
O=c1[nH]c(N[N+](=O)[O-])ncc1Cc1ccco1	183 to 184
